From patent US5968526A, “T cell epitopes of the major allergens from Dermatophagoides (house dust mite)” (Immulogic Pharamaceutical Corporation, priority 1995, dated 1999)

What was measured:
[1] = tested on: T cell lines primed in vitro to Der p II; assay: secondary proliferation of Der p II-primed T cell lines (Examples VIII, X, XI); format: cell-based, human; details: Der p II primed; 26 positive experiments; FIG. 12
Experimental: Experiments similar to those of Example V were performed to determine the T cell-reactive areas of the Der p II protein. For example, PBMC from house dust mite-allergic patient 348 were isolated as described in Example V and were stimulated in vitro with 20 μg/ml purified native Der p II.
The above procedure was followed with a number of patients except in individual cases, T cell lines were primed with recombinant Der p II at 20 μg/ml or at 3 μg/ml and x-irradiated (3500 Rads) autologous PBMC were used as antigen-presenting cells. The data was analyzed as described in Example V, except the ranked sum of peptide responses was analyzed assigning a value of 3, 2 or 1 to the three highest S.I. responses.
A study similar to that described in Example VII was carried out to determine the T cell cross-reactivity of the Der p II and Der f II proteins. T cells primed with the Der f II protein were challenged with various Der f II peptides and a set of substantially matching Der p II peptides.
Another experiment following the procedure described in Example VIII analyzed the response of 29 patients primed in vitro to the Der p II protein and challenged with selected peptides derived from the Der p II sequence.

[2] = tested on: T cell lines primed in vitro to Der f II; assay: secondary proliferation of Der f II-primed T cell lines (Examples IX, X, XI); format: cell-based, human; details: for T cell reactivity: overlapping Der f II peptides, 10 positive experiments, FIG. 10; for T cell response: patient 384, recombinant Der f II primed, data not shown
Experimental: Experiments similar to those of Example V were performed to determine the T cell-reactive areas of the Der f II protein. For example, PBMC from house dust mite-allergic patient 384 were stimulated in vitro with purified recombinant Der f II and the T cell line was then challenged in the presence of x-irradiated (25,000 Rads) autologous Epstein-Barr virus transformed B cells as antigen presenting cells with various overlapping […]. The results of this proliferation assay indicate that T cells from this particular patient respond well to peptides DF II-1, DF II-2, DF II-3.1, DF II-4.5, DF II-15, DF II-16, and DF I-19.1 (data not shown).
The above procedure was followed with 10 patients, except in individual cases, T cell lines were primed by stimulating the patient PBMC with 20 μg/ml or 3 μg/ml purified native Der f II, and were assayed in the presence of x-irradiated (3500 Rads) autologous PBMC as antigen-presentingcells.
A study similar to that described in Example VII was carried out to determine the T cell cross-reactivity of the Der p II and Der f II proteins. T cells primed with the Der f II protein were challenged with various Der f II peptides and a set of substantially matching Der p II peptides. […]

[3] = tested on: T cell lines primed in vitro with Der p I; assay: T cell proliferation with fine map and modified Group I peptides (Example XIV); format: cell-based, human; details: for T cell response, Group I peptides: FIGS. 31a-b
Experimental: Long term T cell lines were established by stimulation of 2×10^6 PBL/ml in bulk cultures of complete medium (RPMI-1640, 2 mM L-glutamine, 100 U/ml penicillin/streptomycin, 5×10^-5 M 2-mercaptoethanol, and 10 mM HEPES supplemented with 5% heat inactivated human AB serum) with 30 μg/ml of purified native Der p I or Der p II for 5-6 days at 37° C. in a humidified 5% CO2 incubator to select for house dust mite protein allergen reactive T cells. This amount of priming antigen was determined to be optimal for the activation of T cells from house dust mite allergic patients. Viable cells were purified by LSM centrifugation and cultured in complete medium supplemented with 5 units recombinant human IL-2/ml and 5 units recombinant human IL-4/ml for up to three weeks until the cells no longer responded to lymphokines and were considered "rested". The ability of the T cells to proliferate to selected peptides, purified Der p I or Der p II, or positive (PHA) controls or negative controls (medium only) was then assessed. For assay, 2×10^4 rested cells were restimulated in the presence of 2×10^4 autologous Epstein-Barr virus (EBV)-transformed B cells (prepared as described below) (gamma-irradiated with 25,000 RADS) or with 5×10^4 autologous PBMs (gamma-irradiated with 3500 RADS), with 2-50 μg/ml of purified native Der p I or Der p II in a volume of 200 μl complete medium in duplicate or triplicate wells in 96-well round bottom plates for 3 days. Each well then received 1 μCi tritiated thymidine for 16-20 hours. The counts incorporated were collected onto glass fiber filter mats and processed for liquid scintillation counting. […] The titrations were used to optimize the dose of peptides in T cell assays.
The maximum response in a titration of each peptide is expressed as the stimulation index (S.I.). The S.I. is the counts per minute (CPM) incorporated by cells in response to peptide, divided by the CPM incorporated by cells in medium only. […] The positive results were used in calculating mean stimulation indices for each peptide for the individual patient tested.
The above procedure was followed with 18 patients in the studies using peptides derived from Der p I and Der f I (FIGS. 31a-b), and 21 patients in the studies with Der p II peptides (FIGS. 32a-b). Individual patient results were used in calculating the mean S.I. for each peptide if the patient responded to the Der p I or Der p II protein at an S.I. of 2.0 or greater and the patient responded to at least one peptide derived from a house dust mite allergen at an S.I. f 2.0 or greater. A summary of positive experiments from the patients tested is shown in FIGS. 32a and 32b and FIGS. 33a and 33b. The bars represent the positivity index. […] In parenthesis above each bar are the mean stimulation indices for each peptide or protein for the group of patients tested.
Autologous EBV-transformed cell lines were γ-irradiated with 25,000 Rad and used as antigen presenting cells in secondary proliferation assays and secondary bulk stimulations. These EBV-transformed cell lines were made by incubating 5×10^6 PBL with 1 ml of B-59/8 Marmoset cell line (ATCC CRL1612, American Type Culture Collection, Rockville, Md.) conditioned medium in the presence of 1 μg/ml phorbol 12-myristate 13-acetate (PMA) at 37° C. for 60 minutes in 12×75 mm polypropylene round-bottom Falcon snap cap tubes (Becton Dickinson Labware, Lincoln Park, N.J.). These cells were then diluted to 1.25×10^6 cells/ml in RPMI-1640 as described above except supplemented with 10% heat-inactivated fetal bovine serum and cultured in 200 μl aliquots in flat bottom culture plates until visible colonies were detected. They were then transferred to larger wells until the cell lines were established.

[4] = tested on: T cell lines primed in vitro to Der p I; assay: secondary proliferation of Der p I-primed T cell lines (Examples V, VII, XI); format: cell-based, human; details: overlapping Der p I peptides; 33 positive experiments
Method in brief: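 PBMC were primed with native or recombinant Der p I (10 or 20 μg/ml) for 7 days, then expanded with IL-2 and IL-4. Resting T cells (2×10^4) were cultured 3 days with irradiated autologous EBV-B cells or PBMC and titrated protein or peptides, then pulsed 16 h with 1 μCi ³H-thymidine. S.I. was peak-response CPM over medium-only CPM, with S.I. ≥2.0 scored positive.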

[5] = tested on: PBMC from mite-allergic patient; assay: primary T cell (PBMC) proliferation, mite-allergic patient, tritiated thymidine; format: cell-based, human; details: medium 1071 ± 30
Experimental: Peripheral blood mononuclear cells (PBMC) were purified by Ficoll-Hypaque centrifugation of a peripheral blood specimen from mite-allergic patient and were assayed for proliferation in response to various antigens, i.e., affinity-purified Der p I, affinity purified Der p II, various Der p I and Der p II peptides. For assay, 5×10^4 PBMC were cultured in triplicate microwells for 7 days at 37° C. in the presence of various concentrations of antigen in 200 μl RPMI-1640 containing 5% human AB serum. Each well then received 1 μCi tritiated thymidine for 16 hours. The counts incorporated were collected onto glass fiber filters and processed for liquid scintillation counting. […] The CPM +/- standard deviation are shown. The stimulation index of each response (S.I.) is the ratio of the ^3 H-thymidine CPM incorporated by the cells in response to antigen divided by the ^3 H-thymidine CPM incorporated by cells in medium only. […] Thus, these peptides contain Der p I or Der p II T cell epitopes recognized by T cells from this particular allergic patient.

[6] = tested on: T cell lines primed in vitro to Der f I; assay: secondary proliferation of Der f I-primed T cell lines (Examples VI, VII, XI); format: cell-based, human; details: Der f I primed; 8 positive experiments; FIG. 8
Experimental: Experiments similar to those of Example V were performed to determine. the T cell-reactive areas of the Der f I protein. For example, PBMC from house dust mite-allergic patient 783 were isolated as described in Example V and were stimulated in vitro-- with recombinant purified Der f I at 20 μg/ml. The results of the proliferation assay with Der f I peptides using x-irradiated (3500 Rads) autologous PBMC as antigen presenting cells indicate that T cells from this patient respond to the peptides DF I-8.1, DF I-9, DF I-6, DF I-10, DF I-2.1, DF I-3, DF I-11, DF I-5, DF I-1, and DF I-17 (data not shown).
The above procedure was followed in a number of patients except in individual cases, T cell lines were primed with affinity purified Der f I at 20 μg/ml or at 10 μg/ml and x-irradiated (25,000 Rads) autologous Epstein-Barr virus transformed B cells were used as antigen presenting cells. […]
Similarly, the procedure described in Example VI was followed with T cell lines from 9 patients primed in vitro to the Der f I protein then analyzed for response to selected peptides derived from the protein. The data was analyzed as described in Example VI. […]

[7] = tested on: human IgE; assay: direct binding ELISA of IgE to mite allergen proteins and peptides; details: plasma of 19 mite-allergic patients and pool of 18; Example XV
Experimental: The coating antigens were removed and the wells are blocked with 0.5% gelatin in PBS, 300 μl/well for 2 hours at room temperature. Pooled human plasma (a mix of plasma samples from 20 patients that were skin test positive for commerical mite extract) was serially diluted with PBS-Tween 20 (PBS with 0.05% nonionic detergent Tween-20 Sigma, St. Louis, Mo.) and 100 μl/well a.backslash.was added and incubated overnight at 4° C. (plasma dilutions were tested in duplicate). The second antibody (biotinylated goat anti-Human IgE, 1:1000, Kirkegaard & Perry Laboratories Inc, Gaithersburg, Md.), was added at 100 μl/well for one hour at room temperature. This solution was removed and streptavidin-HRPO, 1:10000, (Southern Biotechnology Associates, Inc., Birmingham, Ala.) was then added at 100 μl/well for one hour at room temperature (all wells are washed three times with PBS-Tween between each incubation step). TMB Membrane Peroxidase Substrate system (Kirkegaard & Perry Laboratories) was freshly miced, and added at […]. The color was allowed to develop for 2-5 minutes. The reaction was stopped by the addition of […] of 1M phosphoric acid. Plates were read on a Microplate IL310 Autoreader (Biotech Instruments, Winooski, Vt.) with a 450 nm filter. The absorbance levels of duplicate wells were averaged. The order of coating antigens listed vertically in these figure legends corresponds in orDer from left to right to the coating antigens listed for each histogram.
The antigen preparation that was used as a positive control was a mixture of the four major biochemically purified mite allergens (term PMA for Purified Mite Allergen); Der f I, Der f II, Der p I and Der p II. The stock was generated at a concentration of 100 μgs of each protein per millimeter or 400 μgs total protein/ml. This preparation was used on each coated ELISA plate.

Substance	T cell response to Der f II peptides [1]	T cell reactivity [2]	T cell response [2]	other results
DF II-1: Der f II peptide (DQVDVKDCANNEIKKVMVDG)	respond significantly	significant areas of T cell reactivity	respond well	–
DF II-3.1: Der f II peptide (HRGKPFTLEALFDANQNTK)	–	–	respond well	–
DF II-4.5: Der f II peptide (TLEALFDANQNTKTAKIEIKASLDG)	respond significantly	significant areas of T cell reactivity	respond well	–
DF II-13.1: Der f II peptide (HGSDPCIIHRGKPFTLEALFDANQNTKTA)	–	significant areas of T cell reactivity	–	–
DF II-15: Der f II peptide (KIEIKASLDGLEIDVPGIDTNACHFMK)	respond significantly	significant areas of T cell reactivity	respond well	–
DF II-16: Der f II peptide (LEIDVPGIDTNACHFMKCPLVKGQQY)	–	–	respond well	–
DF II-17: Der f II peptide (CPLVKGQQYDAKYTWNVPKIAPKSENV)	respond significantly	significant areas of T cell reactivity	–	–
DP I-2: Der p I peptide (EIDLRQMRTVTPIRMQGGCGSCWAFSG)	–	–	–	T cell response, Group I peptides [3]: positive response; T cell reactivity [4]: significant regions of T cell reactivity; CPM ± S.D. ([5]; 10 μg/ml): 1395 ± 47 CPM; CPM ± S.D. ([5]; 30 μg/ml): 1283 ± 34 CPM; CPM ± S.D. ([5]; 100 μg/ml): 1486 ± 38 CPM
DP I-4: Der p I peptide (VAATESAYLAHRNQSLDLAEQ)	–	–	–	T cell response, Group I peptides [3]: positive response; T cell response to Der p I peptides [6]: respond significantly; T cell reactivity [4]: significant regions of T cell reactivity
DP I-23.35: modified Der p I peptide (DEKEGVVQESYYRYVAREQSCRRPNADKE)	–	–	–	positive T cell responses, modified peptides ([3]; 18 T cell lines, affinity purified Der p I primed, FIG. 31a): all eighteen T cell lines responded positively; T cell response, Group I peptides [3]: positive T cell studies; IgE binding (ELISA), modified peptides [7]: No plasma samples contained IgE
DP II-25.2: Der p II peptide (TVKVLGDDGVLASAIATHAKIRD)	–	–	–	ranked sum of peptide responses ([2]; FIG. 18b, preferred Der p II peptides): highest ranked sum
